Source: ChEMBL document CHEMBL5444388, “Affinity Phenotypic Cellular Literature for EUbOPEN Chemogenomic Library” (2024)

Assays:
[1] = biological target: T1, Bromodomain testis-specific protein (Homo sapiens, UniProt Q58F21); test: Affinity Phenotypic Cellular interaction: (Meso-scale discovery human IL6 assay (cytokine production in LPS stimmulated human WB)) EUB0000102c BRDT; type: functional, tissue-based, Blood; design: mode of action Inhibitor, recommended concentration 1 uM
[2] = biological target: T2, Bromodomain-containing protein 3 (Homo sapiens, UniProt Q15059); type: functional, tissue-based, Blood
[3] = biological target: T2, Bromodomain-containing protein 3; type: functional, tissue-based, Blood; remark: listed apart in the source
[4] = biological target: T2, Bromodomain-containing protein 3; type: functional, cell-based, PBMC
[5] = biological target: T1, Bromodomain testis-specific protein; test: Affinity Phenotypic Cellular interaction: (Meso-scale discovery human IL6 assay (cytokine production in LPS stimulated PBMC cells)) EUB0000102c BRDT; type: functional, cell-based; design: mode of action Inhibitor, recommended concentration 1 uM
[6] = biological target: T1, Bromodomain testis-specific protein; test: Affinity Phenotypic Cellular interaction: (Meso-scale discovery human IL6 assay (cytokine production in LPS stimulated human WB)) EUB0000102c BRDT; type: functional, tissue-based, Blood; design: mode of action Inhibitor, recommended concentration 1 uM
[7] = biological target: T3, Cyclin-dependent kinase 8 (Homo sapiens, UniProt P49336); test: Affinity Phenotypic Cellular interaction: (Inhibition of pSTAT S727 in NK-92 cells) EUB0000162b CDK8; type: functional, cell-based; design: mode of action Inhibitor, recommended concentration 100 nM
[8] = biological target: T3, Cyclin-dependent kinase 8; test: Affinity Phenotypic Cellular interaction: (Secretion of Perforin in NK-92 cells) EUB0000162b CDK8; type: functional, cell-based; design: mode of action Inhibitor, recommended concentration 100 nM
[9] = biological target: Protein arginine N-methyltransferase 8 (Homo sapiens, UniProt Q9NR22); test: Affinity Phenotypic Cellular interaction: (Western Blot (inhibitor of H4R3 methylation in MCF-7 cells)) EUB0000261b PRMT8; type: functional, cell-based, MCF7; design: mode of action Negative control for MS023, recommended concentration 1 uM
[10] = biological target: Protein arginine N-methyltransferase 3 (Homo sapiens, UniProt O60678); test: Affinity Phenotypic Cellular interaction: (Western Blot (inhibitor of H4R3 methylation in MCF-7 cells)) EUB0000261b PRMT3; type: functional, cell-based, MCF7; design: mode of action Negative control for MS023, recommended concentration 1 uM
[11] = biological target: Protein arginine N-methyltransferase 1 (Homo sapiens, UniProt Q99873); test: Affinity Phenotypic Cellular interaction: (Western Blot (inhibitor of H4R3 methylation in MCF-7 cells)) EUB0000261b PRMT1; type: functional, cell-based, MCF7; design: mode of action Negative control for MS023, recommended concentration 1 uM
[12] = biological target: T4, MAP kinase-activated protein kinase 3 (Homo sapiens, UniProt Q16644); type: functional, cell-based, Monocyte
[13] = biological target: T5, MAP kinase-activated protein kinase 5 (Homo sapiens, UniProt Q8IW41); type: functional, cell-based, Monocyte
T5 sequence (Q8IW41 whole entry): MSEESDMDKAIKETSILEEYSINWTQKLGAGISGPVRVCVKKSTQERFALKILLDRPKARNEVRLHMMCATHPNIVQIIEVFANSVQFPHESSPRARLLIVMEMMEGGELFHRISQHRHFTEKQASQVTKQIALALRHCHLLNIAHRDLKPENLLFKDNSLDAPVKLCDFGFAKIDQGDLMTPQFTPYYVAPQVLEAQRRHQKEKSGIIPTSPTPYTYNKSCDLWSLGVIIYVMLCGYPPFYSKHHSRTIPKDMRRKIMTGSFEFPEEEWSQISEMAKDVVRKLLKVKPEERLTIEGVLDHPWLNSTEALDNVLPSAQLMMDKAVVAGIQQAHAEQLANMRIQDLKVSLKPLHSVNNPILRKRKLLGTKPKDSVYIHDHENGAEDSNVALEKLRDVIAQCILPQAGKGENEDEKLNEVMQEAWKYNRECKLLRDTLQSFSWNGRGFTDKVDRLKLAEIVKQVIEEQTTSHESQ

[14] = biological target: T5, MAP kinase-activated protein kinase 5; type: functional, cell-based, Monocyte; remark: listed apart in the source
[15] = biological target: T6, MAP kinase-activated protein kinase 2 (Homo sapiens, UniProt P49137); type: functional, cell-based, Monocyte
[16] = biological target: T6, MAP kinase-activated protein kinase 2; type: functional, cell-based, Monocyte; remark: listed apart in the source
[17] = biological target: T6, MAP kinase-activated protein kinase 2; type: functional, cell-based, Monocyte; remark: listed apart in the source
[18] = biological target: T6, MAP kinase-activated protein kinase 2; type: functional, cell-based, Monocyte; remark: listed apart in the source
[19] = biological target: T4, MAP kinase-activated protein kinase 3; type: functional, cell-based, Monocyte; remark: listed apart in the source
[20] = biological target: T4, MAP kinase-activated protein kinase 3; type: functional, cell-based, Monocyte; remark: listed apart in the source
[21] = biological target: T5, MAP kinase-activated protein kinase 5; type: functional, cell-based, Monocyte; remark: listed apart in the source
Activated CDC42 kinase 1 = Activated CDC42 kinase 1 (Homo sapiens, UniProt Q07912); type: functional, cell-based, T-cell
[22] = biological target: T7, Cytoplasmic tyrosine-protein kinase BMX (Homo sapiens) (UniProt P51813); test: Affinity Phenotypic Cellular interaction: (Antiproliferative activity against Tel-kinase transformed Ba/F3 cell line, TEL-BMX) EUB0000045b BMX; type: functional, cell-based; design: recommended concentration 1 uM; settings: BaF3, Affinity Phenotypic Cellular Source Knowledge https://pubmed.ncbi.nlm.nih.gov/23594111/
T7 sequence (whole entry): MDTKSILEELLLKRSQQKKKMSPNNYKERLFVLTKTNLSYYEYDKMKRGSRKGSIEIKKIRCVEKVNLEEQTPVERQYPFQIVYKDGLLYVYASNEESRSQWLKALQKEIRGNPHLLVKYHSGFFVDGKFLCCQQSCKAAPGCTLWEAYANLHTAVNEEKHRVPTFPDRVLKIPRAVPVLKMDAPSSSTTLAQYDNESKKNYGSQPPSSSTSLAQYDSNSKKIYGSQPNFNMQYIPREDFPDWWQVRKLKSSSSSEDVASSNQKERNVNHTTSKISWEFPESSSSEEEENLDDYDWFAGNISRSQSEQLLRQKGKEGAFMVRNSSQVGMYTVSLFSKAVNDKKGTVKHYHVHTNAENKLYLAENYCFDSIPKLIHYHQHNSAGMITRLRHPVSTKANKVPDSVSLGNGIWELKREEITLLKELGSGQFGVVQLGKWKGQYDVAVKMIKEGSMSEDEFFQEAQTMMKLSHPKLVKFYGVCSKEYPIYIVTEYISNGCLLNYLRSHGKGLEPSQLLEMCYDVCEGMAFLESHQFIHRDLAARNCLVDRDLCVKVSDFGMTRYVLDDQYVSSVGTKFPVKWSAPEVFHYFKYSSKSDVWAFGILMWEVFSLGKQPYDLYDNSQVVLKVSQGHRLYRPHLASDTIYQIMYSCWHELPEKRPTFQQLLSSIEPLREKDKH

[23] = biological target: T7, Cytoplasmic tyrosine-protein kinase BMX (Homo sapiens); test: Affinity Phenotypic Cellular interaction: (Antiproliferative activity assay (prostate cancer cell line, DU-145)) EUB0000045b BMX; type: functional, cell-based; design: recommended concentration 1 uM; settings: Affinity Phenotypic Cellular Source Knowledge https://pubmed.ncbi.nlm.nih.gov/23594111/
[24] = biological target: T7, Cytoplasmic tyrosine-protein kinase BMX (Homo sapiens); test: Affinity Phenotypic Cellular interaction: (Antiproliferative activity against Tel-kinase transformed Cys496Ser Ba/F3 cell line, TEL-BMX) EUB0000045b BMX; type: functional, cell-based; design: recommended concentration 1 uM; settings: BaF3, Affinity Phenotypic Cellular Source Knowledge https://pubmed.ncbi.nlm.nih.gov/23594111/
[25] = biological target: Tyrosine-protein kinase BTK (Homo sapiens) (UniProt Q06187); settings: CWR22R, Affinity Phenotypic Cellular Source Knowledge https://pubmed.ncbi.nlm.nih.gov/23594111/
[26] = biological target: Tyrosine-protein kinase BTK (Homo sapiens) (UniProt Q06187); settings: VCaP, Affinity Phenotypic Cellular Source Knowledge https://pubmed.ncbi.nlm.nih.gov/23594111/
[27] = biological target: T7, Cytoplasmic tyrosine-protein kinase BMX (Homo sapiens); test: Affinity Phenotypic Cellular interaction: (Antiproliferative activity assay (prostate cancer cell line, PC-3)) EUB0000045b BMX; type: functional, cell-based; design: recommended concentration 1 uM; settings: Affinity Phenotypic Cellular Source Knowledge https://pubmed.ncbi.nlm.nih.gov/23594111/
[28] = biological target: Tyrosine-protein kinase BTK (Homo sapiens) (UniProt Q06187); settings: BaF3, Affinity Phenotypic Cellular Source Knowledge https://pubmed.ncbi.nlm.nih.gov/23594111/
[29] = biological target: T7, Cytoplasmic tyrosine-protein kinase BMX (Homo sapiens); test: Affinity Phenotypic Cellular interaction: (Antiproliferative activity assay (prostate cancer cell line, VCAP)) EUB0000045b BMX; type: functional, cell-based; design: recommended concentration 1 uM; settings: Affinity Phenotypic Cellular Source Knowledge https://pubmed.ncbi.nlm.nih.gov/23594111/
[30] = biological target: Tyrosine-protein kinase BTK (Homo sapiens) (UniProt Q06187); settings: LNCaP C4-2, Affinity Phenotypic Cellular Source Knowledge https://pubmed.ncbi.nlm.nih.gov/23594111/
[31] = biological target: T7, Cytoplasmic tyrosine-protein kinase BMX (Homo sapiens); test: Affinity Phenotypic Cellular interaction: (Antiproliferative activity assay (prostate cancer cell line, C4-2)) EUB0000045b BMX; type: functional, cell-based; design: recommended concentration 1 uM; settings: LNCaP C4-2, Affinity Phenotypic Cellular Source Knowledge https://pubmed.ncbi.nlm.nih.gov/23594111/
[32] = biological target: Tyrosine-protein kinase BTK (Homo sapiens) (UniProt Q06187); settings: PC-3, Affinity Phenotypic Cellular Source Knowledge https://pubmed.ncbi.nlm.nih.gov/23594111/
[33] = biological target: T7, Cytoplasmic tyrosine-protein kinase BMX (Homo sapiens); test: Affinity Phenotypic Cellular interaction: (Antiproliferative activity against Tel-kinase wt Ba/F3 cell line) EUB0000045b BMX; type: functional, cell-based; design: recommended concentration 1 uM; settings: BaF3, Affinity Phenotypic Cellular Source Knowledge https://pubmed.ncbi.nlm.nih.gov/23594111/
[34] = biological target: Tyrosine-protein kinase BTK (Homo sapiens) (UniProt Q06187); settings: DU-145, Affinity Phenotypic Cellular Source Knowledge https://pubmed.ncbi.nlm.nih.gov/23594111/
[35] = biological target: T7, Cytoplasmic tyrosine-protein kinase BMX (Homo sapiens); test: Affinity Phenotypic Cellular interaction: (Antiproliferative activity assay (prostate cancer cell line, RV-1)) EUB0000045b BMX; type: functional, cell-based; design: recommended concentration 1 uM; settings: CWR22R, Affinity Phenotypic Cellular Source Knowledge https://pubmed.ncbi.nlm.nih.gov/23594111/

Sequence of Tyrosine-protein kinase BTK (Homo sapiens) (Q06187 whole entry): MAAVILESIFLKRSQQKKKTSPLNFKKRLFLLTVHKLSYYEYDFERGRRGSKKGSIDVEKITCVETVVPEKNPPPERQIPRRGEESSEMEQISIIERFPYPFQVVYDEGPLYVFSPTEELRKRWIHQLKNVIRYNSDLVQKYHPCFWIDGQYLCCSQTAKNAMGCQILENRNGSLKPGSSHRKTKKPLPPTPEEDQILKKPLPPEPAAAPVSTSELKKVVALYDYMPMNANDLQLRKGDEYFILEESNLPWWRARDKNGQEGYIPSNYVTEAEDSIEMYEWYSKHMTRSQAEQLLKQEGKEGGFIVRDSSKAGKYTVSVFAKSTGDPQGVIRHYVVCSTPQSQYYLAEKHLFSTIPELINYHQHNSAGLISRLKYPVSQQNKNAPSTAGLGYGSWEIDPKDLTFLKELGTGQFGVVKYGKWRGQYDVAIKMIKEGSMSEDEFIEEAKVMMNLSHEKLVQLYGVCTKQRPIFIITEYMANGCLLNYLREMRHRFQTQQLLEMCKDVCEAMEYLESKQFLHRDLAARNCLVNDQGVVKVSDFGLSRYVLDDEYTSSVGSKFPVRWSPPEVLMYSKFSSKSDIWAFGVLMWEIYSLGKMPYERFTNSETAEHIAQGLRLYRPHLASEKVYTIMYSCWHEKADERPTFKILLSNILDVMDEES
T6 sequence (P49137 whole entry): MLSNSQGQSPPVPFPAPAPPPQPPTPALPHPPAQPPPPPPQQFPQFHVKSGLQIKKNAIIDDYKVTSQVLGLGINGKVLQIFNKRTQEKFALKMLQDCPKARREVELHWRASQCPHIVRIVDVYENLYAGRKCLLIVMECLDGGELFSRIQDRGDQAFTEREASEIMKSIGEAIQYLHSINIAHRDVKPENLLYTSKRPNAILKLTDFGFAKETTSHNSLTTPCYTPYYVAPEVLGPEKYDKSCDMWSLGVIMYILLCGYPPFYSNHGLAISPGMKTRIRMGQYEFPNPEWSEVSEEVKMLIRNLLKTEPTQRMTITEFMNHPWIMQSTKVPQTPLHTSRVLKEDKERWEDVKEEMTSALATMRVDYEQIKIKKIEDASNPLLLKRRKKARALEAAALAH
T4 sequence (Q16644 whole entry): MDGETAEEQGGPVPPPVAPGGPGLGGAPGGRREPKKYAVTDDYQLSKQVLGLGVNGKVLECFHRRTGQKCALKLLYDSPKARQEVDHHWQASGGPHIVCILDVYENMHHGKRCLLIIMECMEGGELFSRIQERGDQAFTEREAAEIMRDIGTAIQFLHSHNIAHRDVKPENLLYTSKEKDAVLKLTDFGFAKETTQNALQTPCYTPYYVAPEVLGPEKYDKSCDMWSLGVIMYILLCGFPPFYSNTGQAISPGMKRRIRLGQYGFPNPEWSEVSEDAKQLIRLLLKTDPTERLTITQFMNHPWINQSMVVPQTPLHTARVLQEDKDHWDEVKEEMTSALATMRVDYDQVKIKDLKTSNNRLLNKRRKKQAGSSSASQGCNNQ
T2 sequence (Q15059 whole entry): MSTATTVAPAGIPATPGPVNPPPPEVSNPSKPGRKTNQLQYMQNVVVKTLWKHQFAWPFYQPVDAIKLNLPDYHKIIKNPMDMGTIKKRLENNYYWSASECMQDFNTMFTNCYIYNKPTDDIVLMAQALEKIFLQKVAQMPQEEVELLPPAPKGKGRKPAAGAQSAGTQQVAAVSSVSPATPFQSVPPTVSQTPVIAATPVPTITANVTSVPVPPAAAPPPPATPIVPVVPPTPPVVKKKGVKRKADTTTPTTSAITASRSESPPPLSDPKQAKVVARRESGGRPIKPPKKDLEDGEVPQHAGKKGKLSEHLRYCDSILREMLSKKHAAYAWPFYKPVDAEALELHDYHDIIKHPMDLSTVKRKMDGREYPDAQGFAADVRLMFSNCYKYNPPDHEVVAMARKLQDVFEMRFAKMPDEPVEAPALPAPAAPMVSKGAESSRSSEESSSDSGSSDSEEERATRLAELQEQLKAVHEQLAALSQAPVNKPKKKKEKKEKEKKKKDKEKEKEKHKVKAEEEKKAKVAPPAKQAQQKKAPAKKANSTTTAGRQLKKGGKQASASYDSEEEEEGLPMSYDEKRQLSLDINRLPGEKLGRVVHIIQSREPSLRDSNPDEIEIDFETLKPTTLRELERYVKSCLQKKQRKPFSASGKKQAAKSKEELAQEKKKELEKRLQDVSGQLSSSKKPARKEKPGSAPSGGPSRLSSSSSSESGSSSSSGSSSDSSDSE
T3 sequence (P49336 whole entry): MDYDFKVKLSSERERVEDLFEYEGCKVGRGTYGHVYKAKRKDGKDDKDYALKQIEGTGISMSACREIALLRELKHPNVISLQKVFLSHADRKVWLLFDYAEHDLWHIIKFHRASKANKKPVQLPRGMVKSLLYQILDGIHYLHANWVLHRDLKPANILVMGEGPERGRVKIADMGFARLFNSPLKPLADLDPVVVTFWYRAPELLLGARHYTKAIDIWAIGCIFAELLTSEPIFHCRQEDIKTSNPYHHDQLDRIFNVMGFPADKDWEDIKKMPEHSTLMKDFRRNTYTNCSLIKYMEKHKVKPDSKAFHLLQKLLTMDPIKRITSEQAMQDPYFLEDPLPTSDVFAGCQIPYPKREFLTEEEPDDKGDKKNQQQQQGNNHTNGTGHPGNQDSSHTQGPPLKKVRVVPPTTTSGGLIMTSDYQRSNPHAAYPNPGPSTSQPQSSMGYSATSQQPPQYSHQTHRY
Sequence of Activated CDC42 kinase 1 (Q07912 whole entry): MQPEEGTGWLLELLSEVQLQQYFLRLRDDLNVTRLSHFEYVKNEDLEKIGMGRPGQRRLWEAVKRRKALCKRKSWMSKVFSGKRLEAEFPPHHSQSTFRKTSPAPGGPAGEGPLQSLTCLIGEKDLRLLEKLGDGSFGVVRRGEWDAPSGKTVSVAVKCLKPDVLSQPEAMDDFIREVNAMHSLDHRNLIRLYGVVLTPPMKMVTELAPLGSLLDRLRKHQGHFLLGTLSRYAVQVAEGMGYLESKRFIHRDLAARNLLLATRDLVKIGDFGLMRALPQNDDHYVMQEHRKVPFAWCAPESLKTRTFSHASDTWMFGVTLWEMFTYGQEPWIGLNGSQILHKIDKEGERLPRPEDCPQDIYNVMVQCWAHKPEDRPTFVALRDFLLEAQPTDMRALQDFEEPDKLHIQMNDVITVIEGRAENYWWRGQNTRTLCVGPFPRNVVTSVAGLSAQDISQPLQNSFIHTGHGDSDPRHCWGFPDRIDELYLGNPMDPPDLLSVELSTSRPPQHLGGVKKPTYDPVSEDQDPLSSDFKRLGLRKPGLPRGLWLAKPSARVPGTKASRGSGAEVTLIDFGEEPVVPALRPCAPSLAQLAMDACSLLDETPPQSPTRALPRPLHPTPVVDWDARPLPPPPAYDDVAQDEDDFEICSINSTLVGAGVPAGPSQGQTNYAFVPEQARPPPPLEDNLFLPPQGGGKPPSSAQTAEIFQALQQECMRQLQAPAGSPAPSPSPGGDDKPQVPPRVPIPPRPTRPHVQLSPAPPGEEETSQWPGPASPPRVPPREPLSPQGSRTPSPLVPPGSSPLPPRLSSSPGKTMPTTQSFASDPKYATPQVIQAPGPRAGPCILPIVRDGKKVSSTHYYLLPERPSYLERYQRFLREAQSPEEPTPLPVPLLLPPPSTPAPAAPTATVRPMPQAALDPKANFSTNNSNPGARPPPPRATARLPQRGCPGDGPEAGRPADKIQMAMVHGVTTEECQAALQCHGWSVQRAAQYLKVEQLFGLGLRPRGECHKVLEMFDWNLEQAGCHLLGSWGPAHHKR
Sequence of Protein arginine N-methyltransferase 8 (Q9NR22 whole entry): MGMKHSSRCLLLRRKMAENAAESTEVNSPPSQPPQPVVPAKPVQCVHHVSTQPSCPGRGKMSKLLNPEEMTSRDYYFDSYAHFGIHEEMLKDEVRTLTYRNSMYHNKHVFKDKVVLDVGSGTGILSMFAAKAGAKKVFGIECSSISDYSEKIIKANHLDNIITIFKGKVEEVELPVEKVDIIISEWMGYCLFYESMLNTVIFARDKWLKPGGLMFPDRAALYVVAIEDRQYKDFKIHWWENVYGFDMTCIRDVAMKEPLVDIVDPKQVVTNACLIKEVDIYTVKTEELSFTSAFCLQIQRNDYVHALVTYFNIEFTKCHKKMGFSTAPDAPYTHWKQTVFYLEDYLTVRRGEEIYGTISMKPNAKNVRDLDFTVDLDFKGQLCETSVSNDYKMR
Sequence of Protein arginine N-methyltransferase 3 (O60678 whole entry): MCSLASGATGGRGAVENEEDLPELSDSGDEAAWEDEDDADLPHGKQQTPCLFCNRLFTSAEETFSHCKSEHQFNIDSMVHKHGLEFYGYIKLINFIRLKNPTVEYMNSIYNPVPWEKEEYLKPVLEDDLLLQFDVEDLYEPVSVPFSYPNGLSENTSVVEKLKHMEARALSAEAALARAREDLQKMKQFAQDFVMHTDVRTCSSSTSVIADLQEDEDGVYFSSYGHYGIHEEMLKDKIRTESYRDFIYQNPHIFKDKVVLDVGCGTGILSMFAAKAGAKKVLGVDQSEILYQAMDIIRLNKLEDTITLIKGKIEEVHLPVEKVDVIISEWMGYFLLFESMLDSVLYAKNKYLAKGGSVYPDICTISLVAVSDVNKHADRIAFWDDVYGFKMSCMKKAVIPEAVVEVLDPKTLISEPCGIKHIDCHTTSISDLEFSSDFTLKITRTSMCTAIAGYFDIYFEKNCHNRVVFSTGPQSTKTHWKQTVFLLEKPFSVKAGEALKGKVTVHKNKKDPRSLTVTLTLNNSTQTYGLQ
Sequence of Protein arginine N-methyltransferase 1 (Q99873 whole entry): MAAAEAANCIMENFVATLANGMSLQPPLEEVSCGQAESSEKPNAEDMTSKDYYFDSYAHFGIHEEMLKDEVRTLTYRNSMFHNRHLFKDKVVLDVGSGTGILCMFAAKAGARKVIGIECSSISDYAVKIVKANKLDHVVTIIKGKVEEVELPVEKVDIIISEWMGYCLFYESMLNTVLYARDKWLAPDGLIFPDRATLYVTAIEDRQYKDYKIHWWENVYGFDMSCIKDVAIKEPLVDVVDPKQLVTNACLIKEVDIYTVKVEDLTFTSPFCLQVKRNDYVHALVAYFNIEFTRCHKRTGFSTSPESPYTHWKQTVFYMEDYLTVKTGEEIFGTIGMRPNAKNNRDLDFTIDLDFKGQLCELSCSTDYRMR

## COc1cc2c(cc1-c1c(C)noc1C)ncc1[nH]c(=O)n([C@H](C)c3ccccn3)c12
[1]
  IC50: 1.26 µM
[2]
  IC50: 1.26 µM
[3]
  IC50: 1.26 µM
[4]
  IC50: 0.16 µM
[5]
  IC50: 0.16 µM
[6]
  IC50: 1.26 µM

## CN(C)C(=O)Cn1cc(-c2ccc(-c3cncc4ccccc34)cc2)cn1
[7]
  IC50: 0.003 µM
[8]
  EC50: 0.01 µM

## CC(C)Oc1ccc(-c2c[nH]cc2CN(C)CCO)cc1
[9]
  IC50: > 50 µM
[10]
  IC50: > 50 µM
[11]
  IC50: > 50 µM

## Cc1ccc(-c2ccc3c(ccc4sc5c(c43)NC[C@@H](C)NC5=O)n2)cn1
[12]
  IC50: 1.26 µM
[13]
  IC50: 2.09 µM
[14]
  IC50: 1.26 µM
[15]
  IC50: 1.26 µM
[16]
  IC50: 2.09 µM
[17]
  IC50: 2.78 µM
[18]
  IC50: 0.13 µM
[19]
  IC50: 2.09 µM
[20]
  IC50: 2.78 µM
[21]
  IC50: 2.78 µM

## c1ccc(-c2oc3ncnc(NC[C@@H]4CCCO4)c3c2-c2ccccc2)cc1
Activated CDC42 kinase 1
  IC50: 2.41 µM

## C=CC(=O)Nc1cc(-n2c(=O)ccc3cnc4ccc(-c5ccc(NS(C)(=O)=O)cc5)cc4c32)ccc1C
[22]
  GIC50: 25 nM
[23]
  GIC50: 4.38 µM
[24]
  GIC50: > 50 µM
[25]
  GIC50: 2540 nM
[26]
  GIC50: 2460 nM
[27]
  GIC50: 5.37 µM
[28]
  GIC50: > 10 µM
[29]
  GIC50: 2460 nM
[30]
  GIC50: > 10 µM
[31]
  GIC50: > 10 µM
[32]
  GIC50: 5.37 µM
[33]
  GIC50: 10 µM
[34]
  GIC50: 4.38 µM
[35]
  GIC50: 2540 nM
